Measured values published in patent EP3789378A1, “PIPERIDINES OR PIPERIDONES SUBSTITUTED WITH UREA AND HETEROARYL” (Grünenthal GmbH, priority 2019, dated 2021).

The compounds below were run against T1, h FPR2 (Homo sapiens, UniProt P25090) (assay: Agonistic activity in hFPR2-Aq-CHO cells (FLIPR Calcium 5 fluorescence assay)). Conditions: 11 point half log dilution, final assay concentration from 10µM.
T1 construct: expressed in transfected cells
T1 sequence (P25090 1-351): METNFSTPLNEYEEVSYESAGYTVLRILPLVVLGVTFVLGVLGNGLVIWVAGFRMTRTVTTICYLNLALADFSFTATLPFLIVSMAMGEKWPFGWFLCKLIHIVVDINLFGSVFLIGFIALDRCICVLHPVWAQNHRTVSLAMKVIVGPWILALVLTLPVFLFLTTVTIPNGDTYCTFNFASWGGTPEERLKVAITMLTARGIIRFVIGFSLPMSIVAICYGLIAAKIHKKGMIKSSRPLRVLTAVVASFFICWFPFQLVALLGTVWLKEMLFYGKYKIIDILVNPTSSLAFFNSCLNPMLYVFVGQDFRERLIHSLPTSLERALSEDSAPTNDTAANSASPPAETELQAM
Format: cell-based
Method in brief: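 EC50 reflects the compound-evoked rise in Calcium 5 fluorescence over basal, recorded for 5 min on FLIPR and compared with no-compound wells. Dye-loaded hFPR2-Aq-CHO cells received half-log dilutions from 10 µM to 100 pM final in pH 7.4 HBSS buffer.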

Structure (SMILES) | EC50 [nM]
Cc1cc(NC(=O)N[C@@H]2CCN(c3cccnn3)C[C@H]2c2ccc(Cl)cn2)sn1 (relative stereo) [Ex-32, trans-1-(5-chloro-1'-pyridazin-3-yl-1',2',3',4',5',6'-hexahydro-[2,3']bipyridinyl-4'-yl)-3-(3-methyl-isothiazol-5-yl)-urea] | 3
O=C(Nc1ccc(Cl)cc1)N[C@@H]1CCN(CCCO)C[C@H]1c1ccc(Cl)s1 (relative stereo) [Ex-105, trans-1-(4-chloro-phenyl)-3-[3-(5-chloro-thiophen-2-yl)-1-(3-hydroxy-propyl)-piperidin-4-yl]-urea] | 11
CNCC(=O)N1CC[C@@H](NC(=O)Nc2ccc(Cl)cc2)[C@H](c2ccc(OC)cn2)C1 (relative stereo) [Ex-96, trans-1-(4-chloro-phenyl)-3-[5-methoxy-1'-(2-methylamino-acetyl)-1',2',3',4',5',6'-hexahydro-[2,3']bipyridinyl-4'-yl]-urea] | 4
O=C(Nc1ccc(Cl)cc1)N[C@@H]1CCN(c2ccc(F)cc2)C[C@H]1c1ccc(Cl)cn1 (relative stereo) [Ex-12, trans-1-[5-chloro-1'-(4-fluoro-phenyl)-1',2',3',4',5',6'-hexahydro-[2,3']bipyridinyl-4'-yl]-3-(4-chlorophenyl)-urea] | 9
COc1ccc([C@@H]2CN(CC(F)F)CC[C@H]2NC(=O)Nc2ccc(C#N)cc2)nc1 (single isomer, unassigned) [Ex-174, trans-1-(4-Cyano-phenyl)-3-[1-(2,2-difluoro-ethyl)-3-(5-methoxy-pyridin-2-yl)-piperidin-4-yl]-urea] | 1.4
COc1ccc([C@@H]2CN(CC(F)F)CC[C@H]2NC(=O)Nc2ccc(C#N)cc2)nc1 (racemic) [Ex-113, trans-1-(4-cyanophenyl)-3-[1-(2,2-difluoroethyl)-3-(5-methoxy-2-pyridyl)-4-piperidyl]urea] | 1.2

Further lines, results first:

EC50 [nM] | Structure (SMILES)
1 | Cc1cc(CN2CC[C@@H](NC(=O)Nc3ccc(Cl)cc3)[C@H](c3ccc(Cl)s3)C2)no1 (single isomer, unassigned) [Ex-44, trans-1-(4-chlorophenyl)-3-[3-(5-chlorothiophen-2-yl)-1-[(5-methyl-1,2-oxazol-3-yl)methyl]piperidin-4-yl]urea]
0.8 | Cc1cc(NC(=O)N[C@@H]2CCN(c3cnccn3)C[C@H]2c2ccc(Cl)cn2)sn1 (relative stereo) [Ex-19, trans-1-(5-chloro-1'-pyrazin-2-yl-1',2',3',4',5',6'-hexahydro-[2,3']bipyridinyl-4'-yl)-3-(3-methyl-isothiazol-5-yl)-urea]
0.2 | Cc1cc(NC(=O)N[C@@H]2CCN(Cc3ncccn3)C[C@H]2c2ccc(Cl)s2)sn1 (single isomer, unassigned) [Ex-62, trans-1-[3-(5-chlorothiophen-2-yl)-1-(pyrimidin-2-ylmethyl)piperidin-4-yl]-3-(3-methyl-1,2-thiazol-5-yl)urea]
0.16 | COc1ccc([C@@H]2CN(c3ccc(F)cc3)C(=O)C[C@H]2NC(=O)Nc2ccc(Cl)cc2)cn1 (relative stereo) [Ex-5, trans-1-(4-chlorophenyl)-3-[-1-(4-fluorophenyl)-5-(6-methoxypyridin-3-yl)-2-oxopiperidin-4-yl]urea]
0.09 | COc1ccc([C@@H]2CN(Cc3ccc(C4CC4)nc3)CC[C@H]2NC(=O)Nc2ccc(Cl)cc2)nc1 (relative stereo) [Ex-65, trans-1-(4-chlorophenyl)-3-[1-[(6-cyclopropylpyridin-3-yl)methyl]-3-(5-methoxypyridin-2-yl)piperidin-4-yl]urea]

Same assay, conditions: agonistic response at 0.1µM

activation at 0.1 µM [%] | Structure (SMILES)
28 | Cc1cc(CN2CC[C@@H](NC(=O)Nc3ccc(Cl)cc3)[C@H](c3ccc(Cl)cn3)C2)no1 (relative stereo) [Ex-23, trans-1-(4-chlorophenyl)-3-[3-(5-chloropyridin-2-yl)-1-[(5-methyl-1,2-oxazol-3-yl)methyl]piperidin-4-yl]urea]
